{
  "source": "paper PMC7094298",
  "about": "(Febs Letters, 2009)",
  "origin": "cited, not measured here",
  "key": {"[1]": {"molecular_target": "SARS-CoV 3CLpro (Severe acute respiratory syndrome coronavirus, UniProt P0C6X7)"}, "[2]": {"tested_on": "RV and other picornaviral 3Cpro"}},
  "note": "“Also recorded” adds a separate entry of the source.",
  "data": [
    {"compound": "CCOC(=O)/C=C/[C@H](C[C@@H]1CCNC1=O)NC(=O)[C@@H](CC(=O)[C@@H](NC(=O)c1cc(C)on1)C(C)C)Cc1ccc(F)cc1", "note": "[AG7088]", "values": [
      {"measurement": "inhibition of SARS-CoV 3CLpro", "setting": "[1]", "result": "did not inhibit; also recorded: failed to inhibit"},
      {"measurement": "inhibition of RV and other picornaviral 3Cpro", "setting": "[2]", "result": "potent inhibitor"}
    ]}
  ]
}
